{"source": "ChEMBL document CHEMBL3886674", "about": "“Aminopyrimidine derivatives for use as modulators of kinase activity” (2016)"}
{"biological_target": "Ribosomal protein S6 kinase beta-1 (Homo sapiens, UniProt P23443, T412E)", "sequence (P23443 whole entry T412E)": "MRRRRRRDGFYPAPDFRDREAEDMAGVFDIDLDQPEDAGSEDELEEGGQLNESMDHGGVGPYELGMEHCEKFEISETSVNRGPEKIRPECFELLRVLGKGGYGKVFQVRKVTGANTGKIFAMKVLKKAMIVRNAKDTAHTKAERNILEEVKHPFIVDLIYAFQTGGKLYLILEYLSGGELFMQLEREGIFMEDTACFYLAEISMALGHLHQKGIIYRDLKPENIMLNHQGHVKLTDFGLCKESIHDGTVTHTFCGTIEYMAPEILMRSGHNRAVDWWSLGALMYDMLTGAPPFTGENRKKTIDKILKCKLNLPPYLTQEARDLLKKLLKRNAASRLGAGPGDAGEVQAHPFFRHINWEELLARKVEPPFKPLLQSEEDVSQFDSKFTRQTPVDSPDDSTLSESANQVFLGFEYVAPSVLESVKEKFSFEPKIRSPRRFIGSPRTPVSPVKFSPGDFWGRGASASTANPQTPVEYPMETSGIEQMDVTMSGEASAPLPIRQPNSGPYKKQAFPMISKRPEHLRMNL", "assay": "Enzyme Assay: P70S6K inhibitor compounds were diluted and plated in 96 well plates. A reaction mixture including the following components was then added to the compound plate to initiate the enzyme reaction; P70S6K (3 nM, T412E mutant, Millipore) was mixed with 24 μM ATP in an assay buffer containing 100 mM Hepes (pH 7.5), 5 mM MgCl2, 1 mM DTT, 0.015% Brij and 1 μM of the substrate peptide FITC-AHA-AKRRRLSSLRA-OH (derived from the S6 ribosomal protein sequence, FITC=fluorescein isothiocyanate, AHA=6-aminohexanoic acid). The reaction was incubated for 90 min at 25° C., before the addition of 10 mM EDTA to stop the reaction.", "units": {"IC50": "nM"}}
{"smiles": "Nc1ncnc(N2CCC(C(N)c3ccc(Cl)cc3)CC2)c1-c1ccc(F)cc1", "note": "(stereo not drawn)", "IC50": 13}
{"smiles": "Nc1ncnc(N2CCC(C(N)c3ccc(-c4ccc(F)cc4)cc3)CC2)c1-c1ccc(F)cc1", "note": "(stereo not drawn)", "IC50": 17}
{"smiles": "Nc1ncnc(N2CCC(C(N)c3ccc(F)cc3)CC2)c1-c1ccc(F)cc1", "note": "(stereo not drawn)", "IC50": 27}
